Measured values: patent EP0556660A1, “Utilisation of fatty alpha-hydroxy acids and the compositions containing them” (Beiersdorf Aktiengesellschaft, priority 1992, dated 1993)

Columns and labels:
[1] = Free Ca2+ after addition of test substance, fluorimetric with FURA 2; type: physicochemical; conditions: free Ca²⁺ after addition of 1 mmol (1 mM) test substance; pH 7,1; control without fatty acid 200
Procedure: Die erfindungsgemäßen alpha-Hydroxyfettsäuren haben gegenüber Schwermetallionen, z.B. Fe²⁺ oder Erdalkali-Ionen wie Ca²⁺ eine hohe Bindungsfähigkeit, wie die folgende Untersuchung zeigt: a) Konzentration an freiem Ca²⁺ nach Zugabe von 1 mmol Testsubstanz
(§1) Der Testpuffer (100 mM KCl, 10 mM HEPES, 1 mM EGTA 0,5 mM CaCl₂, pH 7,1) wurden mit je 1 mM der Testsubstanz versetzt. Entstehende Niederschläge wurden abfiltriert. Das Filtrat wurde mit KOH auf pH 7,1 eingestellt und mit 1 µM FURA 2 versetzt. Die Konzentration an Ca²⁺ wurde fluorimetrisch bestimmt (Anregung 340 nm, 359 nm, 380 nm, Emission 510 nm). b) Konzentration an freiem Fe²⁺ nach Zugabe von 1 mmol alpha-Hydroxypalmitinsäure

[2] = Free Fe2+ after addition of test substance, photometric with 2,2'-Bipyridin; type: physicochemical; conditions: 1 mmol test substance mixed with 1 mmol Fe²⁺
Procedure: as §1
1 mmol Testsubstanz wurde mit 1 mmol Fe²⁺ versetzt. Entstehende Niederschläge wurden abfiltriert. Die Filtrate wurden mit 2,2'-Bipyridin versetzt und bei 565 nm photometrisch vermessen.

[3] = test system: Pseudomonas aeruginosa; assay: Minimal inhibitory concentration; type: cell-based; conditions: 72 h incubation
Procedure: (§2) Bestimmung der minimalen Hemmkonzentration Eine frische Übernachtkultur des Testorganismus wurde 1:10⁴ in Nährmedium (5 g/ltr Tryptone, 3 g/ltr Hefeextrakt, pH 7,0) verdünnt und 3h inkubiert (30° C, 250 rpm). Anschließend wurde alpha-Hydroxy-palmitinsäure (D) in einer Endkonzentration von 2,0%; 1,5%; 1,0%; 0,75%; 0,5%; 0,25%; 0,1% und 0,06% zugegeben. Nach 72 h Inkubationszeit wurden der Bakterientiter durch Verdünnung und Ausplattierung überprüft. Bei den Ansätzen, bei denen keine Bakterien nachweisbar waren, wurde 1 ml des Ansatzes mit 9 ml Nährmedium versetzt und über Nacht inkubiert (30° C, 250 rpm). […]

[4] = test system: Klebsiella pneumoniae; assay: Minimal inhibitory concentration; type: cell-based; conditions: 72 h incubation
Procedure: as §2

[5] = test system: Acinetobacter calcoaceticus; assay: Minimal inhibitory concentration; type: cell-based; conditions: 72 h incubation
Procedure: as §2

[6] = test system: Corynebacterium xerosis; assay: Minimal inhibitory concentration; type: cell-based; conditions: 72 h incubation
Procedure: as §2

[7] = test system: Micrococcus luteus; assay: Minimal inhibitory concentration; type: cell-based; conditions: 72 h incubation
Procedure: as §2

[8] = test system: Pseudomonas putida; assay: Minimal inhibitory concentration; type: cell-based; conditions: 72 h incubation
Procedure: as §2

[9] = test system: Salmonella livingstone; assay: Minimal inhibitory concentration; type: cell-based; conditions: 72 h incubation
Procedure: as §2

[10] = test system: Staphylococcus epidermidis; assay: Minimal inhibitory concentration; type: cell-based; conditions: 72 h incubation
Procedure: as §2

[11] = test system: Escherichia coli; assay: Minimal inhibitory concentration; type: cell-based; conditions: 72 h incubation
Procedure: as §2

Row | SMILES | Konz. Ca²⁺ [1] | Konz. Fe²⁺ [2] | other results
1 | CCCCCCCCCCCCCC(=O)O [Myristinsäure] | 233 nmol |  | 
2 | O=C(O)CC(O)(CC(=O)O)C(=O)O [Citronensäure] | 139 nmol | 110 µmol | 
3 | O=C(O)CN(CCN(CC(=O)O)CC(=O)O)CC(=O)O [EDTA] | 25 nmol |  | 
4 | CCCCCCCCCCCCCC[C@@H](O)C(=O)O [alpha-OH-Hexadecansäure (D), alpha-Hydroxy-hexadecansäure] |  |  | Minimale Hemmkonzentration [3]: 0,25%; Minimale Hemmkonzentration [4]: 0,50%; Minimale Hemmkonzentration [5]: 0,75%; Minimale Hemmkonzentration [6]: 0,10%; Minimale Hemmkonzentration [7]: 0,25%; Minimale Hemmkonzentration [8]: 0,10%; Minimale Hemmkonzentration [9]: 0,50%; Minimale Hemmkonzentration [10]: 0,10%; Minimale Hemmkonzentration [11]: 0,50%
5 | O=C(O)C(O)c1ccccc1 (stereo not shown) [Mandelsäure] | 200 nmol | 100 µmol | 

Continued, in another order:

Row | Konz. Ca²⁺ [1] | Konz. Fe²⁺ [2] | SMILES | other results
6 | 38 nmol | 20 µmol | CCCCCCCCCCCCCCC(O)C(=O)O (stereo not drawn) [alpha-Hydroxypalmitinsäure] | 
7 | 32 nmol |  | CCCCCCCCCCCCC(O)C(=O)O (stereo not drawn) [alpha-Hydroxy-myristinsäure] | 
8 | 249 nmol |  | CCCCCCCCCCCCCCCC(=O)O [Palmitinsäure] | 
